Assay results reported in patent US12115153B2, “Methods of treating cancer” (Kartos Therapeutics, Inc., priority 2018, dated 2024).

Tests used:
[1] = system: p53 wild-type tumor cell lines; assay: Cell viability assay (72 hours), panel of tumor cell lines; format: cell-based
From the text: SJSA-1, HCT116, ACHN, NCI-H460, MOLM-13, RKO, MCF7, 22RV1, HT-29, PC-3, NCI-H82, NCI-SNU1, and MG-63 cells were purchased from the ATCC, and have since been authenticated by short tandem repeat analysis (PowerPlex 18D Kit from Promega). NCI-H2452, SW982, C32, SK-HEP-1, A375, RT4, RPMI-2650, MDA-MB-134-VI, NCI-H2347, and A427 cells were purchased from ATCC and used within 6 months. IGR-1 and CML-T1 cells were purchased from German Collection of Microorganisms and Cell Cultures (DSMZ) and used within 6 months. A375sq2 cells were generated by in vivo passaging A375 cells in mice. HCT116 p53^−/− cells were obtained from Bert Vogelstein. […]
CellTiter-Glo Luminescent Cell Viability (Promega) or ATPlite 1 step Luminescent (PerkinElmer) assay kits were used to determine the numbers of viable cells. Luminescence was measured with an EnVision Multilabel Reader (PerkinElmer) for each cell line at time zero (V0) before the addition of compounds, as well as after 72 hours of compound treatment. Growth inhibition (GI) was calculated on a 200-point scale according to the following equations, where V72 was luminescence of DMSO control at 72 hours and T72 was luminescence of the compound-treated sample: if T72>V0, then GI=100×(1−((T72−V0)/(V72−V0))); if T72<V0, then GI=100×(1−((T72−V0)/V0)). […]

[2] = system: SJSA-1 (MDM2 amplified) tumor; assay: SJSA-1 xenograft study; format: in vivo, female athymic nude mice
Procedure: (§1) All animal experimental procedures were conducted in accordance with Association for Assessment and Accreditation of Laboratory Animal Care standards. All studies utilized 4- to 6-week-old female athymic nude mice (Harlan Laboratories, Hsd: Athymic Nude-Foxn1nu). The mice were housed five per filter-capped cage in sterile housing in an environmentally controlled room (temperature 23±2° C., relative humidity 50±20%) on a 12-hour light/dark cycle. The mice were fed commercial rodent chow (Harlan Laboratories, #2920X) and received filter-purified tap water ad libitum. The mice were individually identified by microchips (Bio Medic Data Systems) that were implanted subcutaneously at least 2 days before the study.
Treatment began when tumors were established and approximately 200 mm3. […] Tumor dimensions were assessed twice weekly with a Pro-Max electronic digital caliper (Sylvac) and tumor volume was calculated using the formula: length×width×height and expressed as mm3. Data are expressed as mean±SEM. […] Analysis of p21 mRNA at the end of the xenograft studies was performed as described for the p21 pharmacodynamic assay.

[3] = system: HCT116 (KRAS) tumor; assay: HCT116 xenograft study; format: in vivo, female athymic nude mice
Procedure: as §1
(§2) SJSA-1 cells (5×10^6 cells with Matrigel at a ratio of 2:1), NCI-H460 cells (5×10^6 cells with Matrigel at a ratio of 2:1), A375sq2 (5×10^6 cells with Matrigel at a ratio of 2:1), or HCT116 ([…]) were injected subcutaneously in the flank of female athymic nude mice (n=10/group). Treatment began when tumors were established and approximately 200 mm3. The compound of Formula (I) was administered once per day by oral gavage. Tumor dimensions were assessed twice weekly with a Pro-Max electronic digital caliper (Sylvac) and tumor volume was calculated using the formula: length×width×height and expressed as mm3. Data are expressed as mean±SEM. Body weight was recorded twice weekly to assess tolerability (data not shown). Analysis of p21 mRNA at the end of the xenograft studies was performed as described for the p21 pharmacodynamic assay.

[4] = system: A375sq2 (BRAF) tumor; assay: A375sq2 xenograft study; format: in vivo, female athymic nude mice
Procedure: as §1
as §2, with “The compound of Formula (I) was administered once per day by oral gavage.” left out, “Analysis of p21 mRNA at the end of the xenograft studies was performed as described for the p21 pharmacodynamic assay.” left out

[5] = system: tumor cell lines harboring wild-type p53; assay: Xenograft models of different genetic backgrounds and tumor types (all models); format: in vivo, female athymic nude mice; details: daily oral administration, FIGS. 3-5
Procedure: as §1
as §2, with “The compound of Formula (I) was administered once per day by oral gavage.” left out, “Analysis of p21 mRNA at the end of the xenograft studies was performed as described for the p21 pharmacodynamic assay.” left out

[6] = system: p21 mRNA; assay: p21 mRNA in tumors harvested at the end of xenograft studies (qRT-PCR); format: in vivo, female athymic nude mice; details: FIG. 6
Procedure: Tumor cells (SJSA-1: 5×10^6 cells, HCT 116: 2×10^6 cells) were injected subcutaneously into the flank of female athymic nude mice in a 2:1 ratio of cells to Matrigel (BD Bioscience). […] Tumors were harvested after 1, 2, 4, 8, and 24 hours after dose (SJSA-1) or 6 hours after dose (HCT116) and snap-frozen in liquid nitrogen. Total RNA was purified using Qiagen RNeasy 96 kit (Qiagen). The levels of p21 and the housekeeping gene GAPDH were assayed from total RNA from each sample in technical duplicates by qRTPCR. The qRT-PCR reactions were assayed on the Applied Biosystems Prism 7900HT instrument and the data were analyzed with Applied Biosystems SDS2.2 software. The SDS2.2 software calculated the p21 and GAPDH copy number in each of the tumor samples. The copy number of p21 was normalized to the copy number of the GAPDH, and the fold increase of normalized p21 levels were calculated relative to vehicle control for each sample. For MIC-1, plasma was collected at the time of sacrifice and MIC-1 was detected using R&D Quantikine Human MIC-1 Immunoassay (cat no. DGD150) following the manufacturer's instructions. The ELISA assay was read using a Spectramax M5 microplate reader using Softmax pro v4 (Molecular Devices). […]

[7] = system: AML tumor; assay: AML tumor growth (FIG. 7, FIG. 8); format: in vivo, mouse
[8] = system: cell cycle; assay: Cell cycle (FIG. 9); format: cell-based
[9] = system: p53 wild type AML cell lines; assay: Apoptosis in AML cell lines (FIG. 10); format: cell-based

- IC50 ([1]; 23 p53 wild-type cell lines, 72-hour period, read-out: IC50, inhibition of cell growth): 100 to 1000 nM
Compound: CC(C)[C@@H](CS(=O)(=O)C(C)C)N1C(=O)[C@@](C)(CC(=O)O)C[C@H](c2cccc(Cl)c2)[C@H]1c1ccc(Cl)cc1 [compound of Formula (I), 2-((3R,5R,6S)-5-(3-chlorophenyl)-6-(4-chlorophenyl)-1-((S)-1-(isopropylsulfonyl)-3-methylbutan-2-yl)-3-methyl-2-oxopiperidin-3-yl) acetic acid]
- proliferation of p53 WT tumor cells ([1]; FIG. 2): inhibits the proliferation of p53 WT tumor cells
- tumor regrowth after treatment stopped ([2]; 75 mg/kg group, treatment stopped after day 25, observed additional 50 days): no detectable SJSA-1 tumor regrowth
- ED50 ([2]; Mus musculus, SJSA-1, po, once per day by oral gavage, read-out: ED50, in vivo tumor growth): 9 mg/kg
- tumors completely regressed and undetectable ([2]; highest dose group of 75 mg/kg, after 10 days of treatment): 10 of 10
- ED50 ([3]; Mus musculus, HCT-116, po, once per day by oral gavage, read-out: ED50, in vivo tumor growth): 31.6 mg/kg
- TGI compared with control ([3]; highest dose): 86%
- ED50, in vivo tumor growth ([3]; once per day by oral gavage): 31 mg/kg
- ED50 ([4]; Mus musculus, A375-SQ2, once per day by oral gavage, read-out: ED50, in vivo tumor growth): 18 mg/kg
- TGI ([4]; mouse, in vivo): 97%
- tumor growth inhibition (TGI) across all models [5]: significant tumor growth inhibition
- induction of p21 mRNA compared with vehicle-treated tumors [6]: dose- and time-dependent induction of p21 mRNA
- AML tumor growth [7]: inhibits AML tumor growth in a mouse model in a dose dependent manner
- effect on cell cycle [8]: inhibits the cell cycle
- apoptosis [9]: induces apoptosis
